Experimental data: ChEMBL document CHEMBL4831477, “Structure-Enabled Discovery of Novel Macrocyclic Inhibitors Targeting Glutaminase 1 Allosteric Binding Site” (J Med Chem, 2021)
pIC50: −log10 of the molar value. Values after ≈ are worked out from the molar mass of the structure shown.

Experiments:
[1] = target: T1, Glutaminase kidney isoform, mitochondrial (Homo sapiens) (UniProt O94925)
T1 sequence (whole entry): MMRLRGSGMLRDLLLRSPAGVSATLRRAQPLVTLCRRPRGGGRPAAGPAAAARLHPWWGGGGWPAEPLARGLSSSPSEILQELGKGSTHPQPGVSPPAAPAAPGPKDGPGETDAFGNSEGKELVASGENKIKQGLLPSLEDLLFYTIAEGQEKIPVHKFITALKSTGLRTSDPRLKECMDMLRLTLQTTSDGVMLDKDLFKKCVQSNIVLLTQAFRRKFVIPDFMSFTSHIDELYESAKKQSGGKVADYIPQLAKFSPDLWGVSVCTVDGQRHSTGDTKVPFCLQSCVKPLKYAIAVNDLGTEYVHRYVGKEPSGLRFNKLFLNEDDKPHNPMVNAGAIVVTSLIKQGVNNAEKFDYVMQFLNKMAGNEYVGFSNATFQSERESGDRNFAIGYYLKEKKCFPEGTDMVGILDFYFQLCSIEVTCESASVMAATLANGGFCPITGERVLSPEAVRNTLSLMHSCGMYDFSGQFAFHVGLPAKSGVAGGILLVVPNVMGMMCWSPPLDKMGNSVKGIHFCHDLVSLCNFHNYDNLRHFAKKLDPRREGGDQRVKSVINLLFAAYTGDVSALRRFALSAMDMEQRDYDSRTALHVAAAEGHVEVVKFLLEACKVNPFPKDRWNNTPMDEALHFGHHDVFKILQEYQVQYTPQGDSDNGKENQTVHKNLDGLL
Description: Binding affinity to human GLS1 expressed in Escherichia coli strain BL21 (DE3) assessed as change in melting temperature by SYPRO orange dye based protein thermal shift assay

[2] = target: T2, Glutaminase kidney isoform, mitochondrial (Homo sapiens, UniProt O94925); assay: Inhibition of recombinant human GLS1 expressed in Escherichia coli strain BL21 (DE3) preincubated for 10 mins before glutamine addition and measured after 60 mins by bovine liver glutamate dehydrogenase based coupled enzyme assay
T2 sequence (O94925 whole entry): T1 sequence (whole entry)

MDA-MB-436 = assay: Antiproliferative activity against human MDA-MB-436 cells assessed as reduction in cell viability incubated for 72 hrs by MTT assay; type: functional, cell-based; conditions: MDA-MB-436, 72 h
[3] = Intrinsic aqueous solubility of compound at pH 7.4 by LC-MS based shake-flask method; type: physicochemical; conditions: read-out: Intrinsic_solubility
HCT-116 [4] = assay: Antiproliferative activity against human HCT116 cells assessed as reduction in cell viability incubated for 72 hrs by MTT assay; type: functional, cell-based; conditions: HCT-116, 72 h
[5] = Distribution coefficient, logD of the compound at pH 7.4 by LC-MS based shake-flask method; type: physicochemical; conditions: octanol/water, read-out: logD
HCT-116 [6] = assay: Inhibition of colony formation in human HCT-116 cells incubated for 14 days by crystal violet staining based assay; type: functional, cell-based; conditions: dose 0.1-2 µM, time 14.0 day

| ΔTm [1] | pIC50 [2] | pIC50 (MDA-MB-436) | solubility thermodynamic [3] | pIC50 (HCT-116 [4]) | logD [5] | SMILES | inhibition (HCT-116 [6]) |
| --- | --- | --- | --- | --- | --- | --- | --- |
| 16.6 °C | 6.65 | 5.19 | 0.22 µg/mL (≈ 0.333 µM) | 5.15 | 3.85 | O=C1Cc2cccc(c2)OCCCC/C=C/CCCCOc2cccc(c2)CC(=O)NC2=NN=C(CCCCC3=NN=C(N1)S3)S2 | – |
| 16.1 °C | 7.12 | 6.10 | 0.36 µg/mL (≈ 0.624 µM) | 6.38 | 2.98 | O=C1Cc2ccc(cc2)OC/C=C/COc2ccc(cc2)CC(=O)Nc2nnc(s2)CCCCc2nnc(s2)N1 | – |
| 13.9 °C | 7.10 | 5.72 | 0.33 µg/mL (≈ 0.546 µM) | 6.02 | 3.52 | O=C1Cc2ccc(cc2)OCC/C=C/CCOc2ccc(cc2)CC(=O)Nc2nnc(s2)CCCCc2nnc(s2)N1 | Dose-Dependent Effect |
| 0.19 °C | 5.33 | 4.42 | 0.29 µg/mL (≈ 0.458 µM) | 4.79 | 3.62 | O=C1Cc2ccc(cc2)OCCC/C=C/CCCOc2ccc(cc2)CC(=O)Nc2nnc(s2)CCCCc2nnc(s2)N1 | – |
| – | 7.17 | – | – | – | – | C=CCCOc1cccc(CC(=O)Nc2ccc(CCCCc3nnc(NC(=O)Cc4cccc(OCCC=C)c4)s3)nn2)c1 | – |
| 17.2 °C | 7.49 | 6.19 | 2.16 µg/mL (≈ 3.78 µM) | 6.59 | 2.79 | O=C1Cc2cccc(c2)OC/C=C/COc2cccc(c2)CC(=O)Nc2nnc(s2)CCCCc2ccc(nn2)N1 | Dose-Dependent Effect |
| 17.7 °C | 7.43 | 6.15 | 1.09 µg/mL (≈ 1.66 µM) | 6.42 | 3.72 | O=C1Cc2ccccc2OCCCC/C=C/CCCCOc2cccc(c2)CC(=O)Nc2nnc(s2)CCCCc2ccc(nn2)N1 | – |
| 15.9 °C | 7.33 | 6.33 | 0.31 µg/mL (≈ 0.513 µM) | 6.46 | 3.16 | O=C1Cc2cccc(c2)OCC/C=C/CCOc2cccc(c2)CC(=O)NC2=NN=C(CCCCC3=NN=C(N1)S3)S2 | – |
| 12.9 °C | 6.71 | 5.60 | 0.25 µg/mL (≈ 0.378 µM) | 5.83 | 3.91 | O=C1Cc2ccc(cc2)OCCCC/C=C/CCCCOc2ccc(cc2)CC(=O)Nc2nnc(s2)CCCCc2nnc(s2)N1 | – |
